Experiments:
[1] = target: mouse TAAR1 (Mus musculus (Mouse), UniProt Q923Y8); experiment: Radioligand binding assay on mouse TAAR1; settings: for Ki: mouse TAAR1, membranes of stably transfected HEK-293 cells, first value of cell mouse/rat
[2] = target: rat TAAR1 (Rattus norvegicus (Rat), UniProt Q923Y9); experiment: Radioligand binding assay on rat TAAR1; settings: for Ki: rat TAAR1, membranes of stably transfected HEK-293 cells, second value of cell mouse/rat
How it was run: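 Membranes from HEK293 cells stably expressing rat TAAR1, in 20 mM HEPES-NaOH pH 7.4 with 0.1 mM EDTA. Displacement of ^3[H]-(S)-4-[(ethyl-phenyl-amino)-methyl]-4,5-dihydro-oxazol-2-ylamine, nonspecific binding with 10 μM unlabeled ligand; compounds 10 pM to 10 μM in duplicate, 1 hr at 4° C. Filtration, then scintillation counting.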

mouse TAAR1, sequence (Q923Y8 whole entry): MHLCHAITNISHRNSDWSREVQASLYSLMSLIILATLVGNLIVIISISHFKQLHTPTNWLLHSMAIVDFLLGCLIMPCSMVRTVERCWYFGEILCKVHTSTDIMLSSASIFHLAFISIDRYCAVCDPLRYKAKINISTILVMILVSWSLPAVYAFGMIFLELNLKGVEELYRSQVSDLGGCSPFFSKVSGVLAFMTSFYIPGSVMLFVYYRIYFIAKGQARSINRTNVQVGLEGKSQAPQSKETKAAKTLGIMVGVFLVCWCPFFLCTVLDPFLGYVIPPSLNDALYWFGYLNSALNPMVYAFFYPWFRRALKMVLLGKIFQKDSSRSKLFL
rat TAAR1, sequence (Q923Y9 whole entry): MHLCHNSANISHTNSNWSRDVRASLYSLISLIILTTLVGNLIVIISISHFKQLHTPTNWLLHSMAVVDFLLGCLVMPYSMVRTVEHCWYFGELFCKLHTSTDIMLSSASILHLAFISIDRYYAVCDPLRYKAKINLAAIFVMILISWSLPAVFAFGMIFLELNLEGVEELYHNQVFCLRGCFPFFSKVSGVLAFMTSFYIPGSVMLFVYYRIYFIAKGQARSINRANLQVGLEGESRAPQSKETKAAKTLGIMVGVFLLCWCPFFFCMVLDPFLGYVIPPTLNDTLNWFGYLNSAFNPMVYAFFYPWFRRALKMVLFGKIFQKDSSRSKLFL

SMILES	Ki [1] [µM]	Ki [2] [µM]	Kd ([1]; mouse TAAR1 membranes, saturation curve, read-out: dissociation constant (Kd) of the radioligand) [µM]	Kd ([2]; rat TAAR1 membranes, saturation curve, read-out: dissociation constant (Kd) of the radioligand) [µM]
NC1=N[C@@H](CCc2ccc(NC(c3cc(Cl)cc(Cl)c3)C(F)(F)F)cc2)CO1 (stereo partly drawn) [Example 69, (4S)-4-(4-(1-(3,5-Dichlorophenyl)-2,2,2-trifluoroethylamino)phenethyl)-4,5-dihydrooxazol-2-amine]	0.0355	0.0407		
COc1cccc(C(Nc2ccc(CC[C@H]3COC(N)=N3)cc2)C(F)(F)F)n1 (stereo partly drawn) [Example 70, (4S)-4-(4-(2,2,2-Trifluoro-1-(6-methoxypyridin-2-yl)ethylamino)phenethyl)-4,5-dihydrooxazol-2-amine]	0.134	0.0205		
NC1=N[C@@H](CCc2ccc(Nc3ncc(Cl)cn3)nc2)CO1 [Example 71, {5-[2-((S)-2-Amino-4,5-dihydro-oxazol-4-yl)-ethyl]-pyridin-2-yl}-(5-chloro-pyrimidin-2-yl)-amine]	0.0137	0.0011		
Cc1cc(CC[C@H]2COC(N)=N2)ccc1Nc1ncc(Cl)cn1 [Example 72, {4-[2-((S)-2-Amino-4,5-dihydro-oxazol-4-yl)-ethyl]-2-methyl-phenyl}-(5-chloro-pyrimidin-2-yl)-amine]	0.0019	0.0007		
NC1=N[C@@H](CCc2ccc(Nc3ncc(OCC(F)(F)F)cn3)cc2)CO1 [Example 73, (S)-4-(4-(5-(2,2,2-Trifluoroethoxy)pyrimidin-2-ylamino)phenethyl)-4,5-dihydrooxazol-2-amine]	0.02	0.0028		
CS(=O)(=O)c1cnc(Nc2ccc(CC[C@H]3COC(N)=N3)cc2)nc1 [Example 74, (S)-4-(4-(5-(Methylsulfonyl)pyrimidin-2-ylamino)phenethyl)-4,5-dihydrooxazol-2-amine]	0.046	0.0146		
C[S+]([O-])c1cnc(Nc2ccc(CC[C@H]3COC(N)=N3)cc2)nc1 (stereo partly drawn) [Example 75, (4S)-4-(4-(5-(Methylsulfinyl)pyrimidin-2-ylamino)phenethyl)-4,5-dihydrooxazol-2-amine]	0.48	0.104		
CCN(C[C@H]1COC(N)=N1)c1ccccc1 [^3[H]-(S)-4-[(ethyl-phenyl-amino)-methyl]-4,5-dihydro-oxazol-2-ylamine, reference compound]			~0.0007	~0.0023

Reference: US8673950B2, “Dihydrooxazol-2-amine derivatives” (Hoffmann-LaRoche Inc., priority 2010, dated 2014)
